Like-named read-outs stand apart in the source and are kept apart here.
Tests used:
HDAC7 = target: T1, HDAC7 (Homo sapiens, UniProt Q8WUI4); experiment: HDAC biochemical activity measurement (fluorescent substrate deacetylation);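 as to all read-outs here: fluorogenic deacetylation assay using acetyl-lysine substrate at 20 µM, enzyme and compound incubated 30 min at 37 °C, then developer added, fluorescence read at 360/460 nm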; details: for IC50 HDAC7: 37° C. 30 minutes
T1 sequence (Q8WUI4 1-952): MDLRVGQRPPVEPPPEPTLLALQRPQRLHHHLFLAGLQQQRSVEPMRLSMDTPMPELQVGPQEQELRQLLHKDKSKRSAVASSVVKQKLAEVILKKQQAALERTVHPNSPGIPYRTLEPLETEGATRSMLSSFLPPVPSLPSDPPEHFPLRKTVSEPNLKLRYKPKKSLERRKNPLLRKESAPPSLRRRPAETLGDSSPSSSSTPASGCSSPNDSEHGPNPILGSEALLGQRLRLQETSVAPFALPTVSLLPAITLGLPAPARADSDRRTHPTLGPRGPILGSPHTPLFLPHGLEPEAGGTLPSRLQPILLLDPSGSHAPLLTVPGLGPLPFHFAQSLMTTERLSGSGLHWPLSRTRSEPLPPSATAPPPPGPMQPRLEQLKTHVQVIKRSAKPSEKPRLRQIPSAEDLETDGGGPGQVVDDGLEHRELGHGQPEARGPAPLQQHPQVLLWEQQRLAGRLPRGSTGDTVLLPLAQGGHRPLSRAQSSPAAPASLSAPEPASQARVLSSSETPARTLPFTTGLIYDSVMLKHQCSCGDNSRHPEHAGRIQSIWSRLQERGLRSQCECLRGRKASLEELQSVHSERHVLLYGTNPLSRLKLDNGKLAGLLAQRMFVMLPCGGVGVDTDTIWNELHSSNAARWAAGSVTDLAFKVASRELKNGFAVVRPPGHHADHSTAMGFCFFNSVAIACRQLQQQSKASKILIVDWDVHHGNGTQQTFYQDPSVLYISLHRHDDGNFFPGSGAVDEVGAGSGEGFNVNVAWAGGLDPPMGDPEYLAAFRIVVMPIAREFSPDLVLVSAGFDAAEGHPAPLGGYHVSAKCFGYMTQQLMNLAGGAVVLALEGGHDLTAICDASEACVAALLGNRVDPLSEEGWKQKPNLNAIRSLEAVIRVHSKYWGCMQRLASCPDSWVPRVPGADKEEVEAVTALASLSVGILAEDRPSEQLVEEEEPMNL

[1] = system: A549 (human lung cancer cells); experiment: MTT cancer cell growth inhibition; assay type: cell-based; details: Homo sapiens, A549, 72 h, MTT, 72 hours incubation, read-out: GI50 A54
Description: (§1) MTT assay principle is yellow MTT can penetrate membrane into the cell, succinic dehydrogenase of the mitochondria in living cells can make exogenous MTT reduction of insoluble in water of blue-violet acicular formazan for crystallization and deposition in the cell, crystallization can be dissolved dimethyl sulfoxide (DMSO) solution, detected its absorbance at 490 nm/570 nm wavelength by enzyme-linked immunosorbent assay, which can reflect the number of cells.
(§2) Using DMEM+10% FBS culture medium or using 1640+10% FBS culture, respectively.
(§3) a) Cells were seeded in 96-well plates with the inoculation of 1500/well, 190 μl/hole, 37° C., 5% of CO2 incubator overnight;
(§4) b) The next day each well was added 10 μl of different drugs. The final concentration of drug was 10^−5˜10^−10M, three parallel holes; 37° C., 5% CO2 culture incubator for 72 hours incubation;
(§5) c) Per well was added 20 μl 5 mg/ml of MTT, 37° C., 5% CO2 culture incubator for 4 hours incubation;
(§6) d) The supernatant was discarded. Each well was added 100 μl of DMSO and oscillation;
(§7) e) 570 nm readings. Calculate cell viability. GI50 calculation based on the results.

[2] = system: BGC-823 (human gastric cancer cells); experiment: MTT cancer cell growth inhibition; assay type: cell-based; details: Homo sapiens, BGC-823, 72 h, MTT, 72 hours incubation, read-out: GI50 BG
Description: as §1, §2, §3, §4, §5, §6, §7

[3] = system: Bel-7402 (human hepatoma cells); experiment: MTT cancer cell growth inhibition; assay type: cell-based; details: Homo sapiens, Bel-7402, 72 h, MTT, 72 hours incubation, Bel-7402 cells; read-out: GI50 Bel-7402
Description: as §1, §2, §3, §4, §5, §6, §7

[4] = system: DU145 (human prostate cancer cells); experiment: MTT cancer cell growth inhibition; assay type: cell-based; details: Homo sapiens, DU-145, 72 h, MTT, 72 hours incubation, read-out: GI50 Du1
Description: as §1, §2, §3, §4, §5, §6, §7

[5] = system: H1975 (non-small cell lung adenocarcinoma); experiment: MTT cancer cell growth inhibition; assay type: cell-based; details: Homo sapiens, NCI-H1975, 72 h, MTT, 72 hours incubation, H1975 cells; read-out: GI50 H1975
Description: as §1, §2, §3, §4, §5, §6, §7

[6] = system: HCC827 (human non-small cell lung cancer cells); experiment: MTT cancer cell growth inhibition; assay type: cell-based; details: Homo sapiens, HCC827, 72 h, MTT, 72 hours incubation, HCC827 cells; read-out: GI50 HCC827
Description: as §1, §2, §3, §4, §5, §6, §7

[7] = system: HT1080 (human fibrosarcoma cells); experiment: MTT cancer cell growth inhibition; assay type: cell-based; details: Homo sapiens, HT-1080, 72 h, MTT, 72 hours incubation, read-out: GI50 HT1
Description: as §1, §2, §3, §4, §5, §6, §7

[8] = system: Hela (human cervical cancer cells); experiment: MTT cancer cell growth inhibition; assay type: cell-based; details: Homo sapiens, HeLa, 72 h, MTT, 72 hours incubation, read-out: GI50 Hela
Description: as §1, §2, §3, §4, §5, §6, §7

[9] = system: Huh-7 (human hepatoma cells); experiment: MTT cancer cell growth inhibition; assay type: cell-based; details: Homo sapiens, Huh-7, 72 h, MTT, 72 hours incubation, Huh-7 cells; read-out: GI50 Huh-7
Description: as §1, §2, §3, §4, §5, §6, §7

[10] = system: K562 (human leukemia cells); experiment: MTT cancer cell growth inhibition; assay type: cell-based; details: Homo sapiens, K562, 72 h, MTT, 72 hours incubation, K562 cells; read-out: GI50 K562
Description: as §1, §2, §3, §4, §5, §6, §7

[11] = system: KBM-5 (human chronic myelogenous leukemia); experiment: MTT cancer cell growth inhibition; assay type: cell-based; details: Homo sapiens, KBM5, 72 h, MTT, 72 hours incubation, KBM-5 cells; read-out: GI50 KBM-5
Description: as §1, §2, §3, §4, §5, §6, §7

[12] = system: KBM5-T315I (human chronic myelogenous leukemia); experiment: MTT cancer cell growth inhibition; assay type: cell-based; details: Homo sapiens, 72 h, MTT, 72 hours incubation, KBM5-T315I cells; read-out: GI50 KBM5-T315I
Description: as §1, §2, §3, §4, §5, §6, §7

[13] = system: MCF-7 (human breast cancer cells); experiment: MTT cancer cell growth inhibition; assay type: cell-based; details: Homo sapiens, MCF7, 72 h, 72 hours incubation, read-out: GI50 MCF
Description: as §1, §2, §3, §4, §5, §6, §7

[14] = system: MDA-MB-231 (breast cancer cells); experiment: MTT cancer cell growth inhibition; assay type: cell-based; details: Homo sapiens, MDA-MB-231, 72 h, read-out: GI50 MDA-MB-231, MTT, 72 hours incubation, MDA-MB-231 cells
Description: as §1, §2, §3, §4, §5, §6, §7

[15] = system: MOLT-4 (human acute lymphoblastic leukemia cells); experiment: MTT cancer cell growth inhibition; assay type: cell-based; details: Homo sapiens, MOLT-4, 72 h, MTT, 72 hours incubation, read-out: GI50 Mol
Description: as §1, §2, §3, §4, §5, §6, §7

[16] = system: N-87 (human gastric cancer cells); experiment: MTT cancer cell growth inhibition; assay type: cell-based; details: Homo sapiens, 72 h, MTT, 72 hours incubation, N-87 cells; read-out: GI50 N-87
Description: as §1, §2, §3, §4, §5, §6, §7

[17] = system: PANC-1 (Pac-1, human pancreatic cancer cells); experiment: MTT cancer cell growth inhibition; assay type: cell-based; details: Homo sapiens, PANC-1, 72 h, MTT, 72 hours incubation, read-out: GI50 PAN
Description: as §1, §2, §3, §4, §5, §6, §7

[18] = system: SGC-7901 (human gastric cancer cells); experiment: MTT cancer cell growth inhibition; assay type: cell-based; details: Homo sapiens, SGC-7901, 72 h, MTT, 72 hours incubation, SGC-7901 cells; read-out: GI50 SGC-7901
Description: as §1, §2, §3, §4, §5, §6, §7

[19] = system: U937 (human leukemia cells); experiment: MTT cancer cell growth inhibition; assay type: cell-based; details: Homo sapiens, U-937, 72 h, MTT, 72 hours incubation, read-out: GI50 U93
Description: as §1, §2, §3, §4, §5, §6, §7

[20] = system: lncap (prostate cancer cells); experiment: MTT cancer cell growth inhibition; assay type: cell-based; details: Homo sapiens, LNCaP, 72 h, MTT, 72 hours incubation, read-out: GI50 lnca
Description: as §1, §2, §3, §4, §5, §6, §7

Row | GI50 ([1]; A549 cells) | GI50 ([2]; BGC-823 cells) | GI50 [3] | GI50 ([4]; DU145 cells) | GI50 [5] | GI50 [6] | GI50 ([7]; HT1080 cells) | GI50 ([8]; Hela cells) | GI50 [9] | GI50 [10] | GI50 [11] | GI50 [12] | GI50 ([13]; MCF-7 cells) | GI50 [14] | GI50 ([15]; MOLT-4 cells) | GI50 [16] | GI50 ([17]; PANC-1 cells) | GI50 [18] | GI50 ([19]; U937 cells) | GI50 ([20]; lncap cells) | Compound | other results
1 | 60 nM | 30 nM | 42 nM | 20 nM | 63 nM | 53 nM | 20 nM | 20 nM | 55 nM | 35 nM | 66 nM | 81 nM | 40 nM | 38 nM | 70 nM | 36 nM | 50 nM | 49 nM | 30 nM | 90 nM | C/C=C1\NC(=O)c2cc(SCC)cc(n2)CNC(=O)C[C@@H](/C=C/CCSC(=O)CCCCCC)OC(=O)[C@H](C(C)C)NC1=O [Compound 251] | IC50 (μM) HDAC7 (HDAC7): no activity
2 | 30 nM | 50 nM | 27 nM | 30 nM | 23 nM | 35 nM | 10 nM | 50 nM | 84 nM | 29 nM | 51 nM | 25 nM | 40 nM | 27 nM | 30 nM | 36 nM | 40 nM | 43 nM | 60 nM | 20 nM | C/C=C1\NC(=O)c2ccc(SC)c(n2)CNC(=O)C[C@@H](/C=C/CCSC(C)=O)OC(=O)[C@H](CCCCN)NC1=O [Compound 194] | IC50 HDAC7 (HDAC7): no activity
3 | – | – | 52 nM | – | 37 nM | 52 nM | – | – | 35 nM | 35 nM | 86 nM | 24 nM | – | 35 nM | – | 38 nM | – | 28 nM | – | – | C/C=C1\NC(=O)c2cc(F)cc(n2)CNC(=O)C[C@@H](/C=C/CCSC(C)=O)OC(=O)[C@H](CCCCN)NC1=O [Example 73] | IC50 HDAC7 (HDAC7): no activity; GI50 [1]: 20 nM; GI50 [2]: 30 nM; GI50 [4]: 30 nM; GI50 [7]: 50 nM; GI50 [8]: 80 nM; GI50 [13]: 20 nM; GI50 [15]: 30 nM; GI50 [17]: 50 nM; GI50 [19]: 30 nM; GI50 [20]: 30 nM

Reference: patent publication US10065990B2, “Cyclic peptide compound, and preparation method, pharmaceutical composition and use thereof” (HANGZHOU GUANYU BIO-MEDICAL CO., LTD, priority 2013, dated 2018)
